Tested on: CHO-hGLP-1R cells
Test: Cell viability assay (resazurin)
Assay type: cell-based, Chinese hamster
Settings: 48 h treatment, then 5 h resazurin dye, fluorescence 590 nm, concentrations up to 1000-fold above the EC50, 3 independent experiments
Protocol: CHO-hGLP-1R cells described above were plated at 10 000 cells per well in 96-well black clear-bottom poly-d-lysine-coated microtiter plates (Corning, USA). Growth medium comprised DMEM supplemented with 10% FBS (Sigma-Aldrich). […] Fluorescence emission was measured at 590 nm (560 nm excitation) using an Envision plate reader (Perkin Elmer, USA).

Structure (SMILES): CN[C@@H]1C[C@H]2O[C@@](C)([C@@H]1OC)n1c3ccccc3c3c4c(c5c6ccccc6n2c5c31)C(=O)NC4 [staurosporine]
- cytotoxicity (cell viability): expected effect on loss of cell viability
